Results on three molecules are retold here after US20250186603A1, “ANTI-GD2 ANTIBODIES, IMMUNOCONJUGATES AND THERAPEUTIC USES THEREOF” (Merck Patent GmbH, priority 2022, published 2025).

The subject of one series is CTG-2264 tumors. The experiment in a line: Combination efficacy study of anti-GD2 ADC and ATR inhibitor in osteosarcoma PDX model CTG-2264. The class given is in vivo, athymic nude mice (nu/nu). The settings on record: Day 23; Molecule 1 3.0 mg/kg single IV Day0; ATR inhibitor 10 mg/kg p.o. qd; combination of both. The method, then: The antitumor activities of selected ADCs of the present invention were tested in the CTG-2264, osteosarcoma PDX model.
Vehicle control was saline and dosed (10 mL/kg) at Day0. The group size for each treatment group was 3. The calculation of the Tumor Growth Inhibition (TGI) was done for Day 23 after treatment start, when the mean tumor volume of the control group reached 1000 mm3 (see FIG. 11, 12).

The next series deals with M21 (melanoma) cells. The experiment in a line: ADC cell killing assay (CellTiter Glo Luminescent Cell Viability assay) on M21. The class given is cell-based, human. The method, then:
(§1) The in vitro potency of the ADCs hu14.18-IgG1.4 (K322A)-delK-βGluc Exatecan and rituximab IgG1 βGluc Exatecan, the unconjugated antibody hu14.18-IgG1.4 (K322A)-delk and the free payload Exatecan was measured on antigen-positive human tumor cell lines CHP-134 (neuroblastoma, #ACC653, DSMZ, Braunschweig, Germany), NCI-H446 (small cell lung cancer (SCLC), #HTB-171, ATCC, Manassas, VA, USA) as well as M21 (melanoma, Scripps Research Institute, La Jolla, CA, USA) and antigen-negative human tumor cell line MDA-MB-468 (breast carcinoma, #ACC738, DSMZ, Braunschweig, Germany) using the CellTiter Glo® Luminescent Cell Viability assay (#G7573, Promega Corporation, Madison, WI, USA).
(§2) The cell lines CHP-134, NCI-H446 and MDA-MB-468 were cultured as instructed by vendor and maintained in RPMI1640 medium with GlutaMAX™ supplement (#61870-010, Gibco™, purchased from Thermo Fisher Scientific, Waltham, MA, USA), 1 mM sodium pyruvate (#11360-070, Gibco™, Thermo Fisher Scientific) and 10% fetal bovine serum (FBS) (#S0615, Sigma Aldrich, St. Louis, MO, USA). The melanoma cell line M21 was cultured in DMEM with stable L-glutamine (#41965-039, Gibco™, Thermo Fisher Scientific) and 10% FBS. […]

Series [1] relates to CHP-134 (neuroblastoma) cells. As to the kind of experiment: ADC cell killing assay (CellTiter Glo Luminescent Cell Viability assay) on CHP-134. The class given is cell-based, human. The method, then: as §1, §2
(In general: Cellular ATP, detected with luciferase, serves as a proxy for viable cell number.)

For series [2], the system named is NCI-H446 (small cell lung cancer) cells. As to the kind of experiment: ADC cell killing assay (CellTiter Glo Luminescent Cell Viability assay) on NCI-H446. The class given is cell-based, human. The method, then:
as §1, §2

For series [3], the system named is MDA-MB-468 (breast carcinoma) cells. The experiment in a line: ADC cell killing assay (CellTiter Glo Luminescent Cell Viability assay) on MDA-MB-468. Format: cell-based, human. As for the experimental part:
as §1, §2

For series [4] the following is noted: cited from earlier work.

With `Nc1nn2cc(F)cnc2c1C(=O)Nc1cncc(F)c1N1CCC(C(=O)N2CCN(C3COC3)CC2)CC1` [ATR inhibitor], the “tumor growth inhibition (TGI)” value with CTG-2264 tumors was determined as 67%.

A word on the IC50: it is the midpoint of a concentration-inhibition curve. On to `CC[C@@]1(O)C(=O)OCc2c1cc1n(c2=O)Cc2c-1nc1cc(F)c(C)c3c1c2[C@@H](N)CC3` [Exatecan, (1S,9S)-1-Amino-9-ethyl-5-fluoro-9-hydroxy-4-methyl-1,2,3,9,12,15-hexahydro-10H,13H-benzo[de]pyrano[3′,4′:6,7]indolizino[1,2-b]quinoline-10,13-dione], for which the IC50 in the series on M21 (melanoma) cells (Homo sapiens, M21, 144 h) was 1100 pM; in series [1] (Homo sapiens, CHP-134, 144 h), 200 pM; in series [2] (Homo sapiens, NCI-H446, 144 h) it was 70 pM; in series [3] (Homo sapiens, MDA-MB-468, 144 h), 300 pM. Besides, the “Span (%)” value was found to be 95% in the series on M21 (melanoma) cells (M21, % efficacy at highest test concentration (100 nM for Molecule 1,2,4; 1 μM for Molecule 3), geomean); 100% in series [1] (CHP-134, % efficacy at highest test concentration (100 nM for Molecule 1,2,4; 1 μM for Molecule 3), geomean); 96% in series [2] (NCI-H446, % efficacy at highest test concentration (100 nM for Molecule 1,2,4; 1 μM for Molecule 3), geomean); 100% in series [3] (MDA-MB-468, % efficacy at highest test concentration (100 nM for Molecule 1,2,4; 1 μM for Molecule 3), geomean).

B1: Dinutaximab beta (antibody, chains of the INN, looked up, V domains shown)
VH: EVQLLQSGPELEKPGASVMISCKASGSSFTGYNMNWVRQNIGKSLEWIGAIDPYYGGTSYNQKFKGRATLTVDKSSSTAYMHLKSLTSEDSAVYYCVSGMEYWGQGTSVTVSS
VL: EIVMTQSPATLSVSPGERATLSCRSSQSLVHRNGNTYLHWYLQKPGQSPKLLIHKVSNRFSGVPDRFSGSGSGTDFTLKISRVEAEDLGVYFCSQSTHVPPLTFGAGTKLELK
Take B1: the clinical signs entry in series [4] (cynomolgus monkeys, EMA/263814/2017) was “clinical signs that were interpreted as acute pain”. In series [4] (infused 4 h/day for 10 consecutive days, 30 and 100 mg/m^2/day), the “histopathology of peripheral nervous system” value is “histopathological changes were noted on day 15 in the peripheral nerves and visceral nervous innervation of organs”.
